Values after ≈ are worked out from the molar mass of the structure shown. Where two headings read alike, the source gives them in different places.
Tests used:
[1] = test system: ATCC 12228; experiment: minimal inhibitory concentration, two-fold agar dilution; format: cell-based; details: Staphylococcus faecalis, ATCC12228, 20 h
Protocol: (§1) These NIC values were taken by employing a two-fold dilution method: that is, two-fold serial dilutions of each of the test compounds were made and dispersed in a Muller-Hinton agar medium; 2 μl of the standard test strain which had the 10^7 CFU (Colony Forming Unit) per ml was inoculated on the medium; and these were incubated at 37° C. for 20 hours.

[2] = test system: Acinetobacter calcoaceticus ATCC 15473; experiment: as above; format: cell-based; details: ATCC15473, Muller-Hinton agar, 37° C., 20 hours
Protocol: as §1

[3] = test system: Bacillus cereus ATCC 11778; experiment: as above; format: cell-based; details: Bacillus cereus, ATCC11778, 20 h
Protocol: as §1

[4] = test system: Bacillus megaterium ATCC 9885; experiment: as above; format: cell-based; details: Priestia megaterium, ATCC9885, 20 h
Protocol: as §1

[5] = test system: Citrobacter freundii ATCC 8090; experiment: as above; format: cell-based; details: ATCC8090, Muller-Hinton agar, 37° C., 20 hours
Protocol: as §1

[6] = test system: Enterobacter aerogenes ATCC 29751; experiment: as above; format: cell-based; details: Klebsiella aerogenes, ATCC29751, 20 h
Protocol: as §1

[7] = test system: Enterobacter cloacae ATCC 27508; experiment: as above; format: cell-based; details: ATCC27508, Muller-Hinton agar, 37° C., 20 hours
Protocol: as §1

[8] = test system: Escherichia coli ATCC 10536; experiment: as above; format: cell-based; details: ATCC10536, Muller-Hinton agar, 37° C., 20 hours
Protocol: as §1

[9] = test system: Escherichia coli ATCC 25922; experiment: as above; format: cell-based; details: ATCC25922, Muller-Hinton agar, 37° C., 20 hours
Protocol: as §1

[10] = test system: Klebsiella pneumoniae ATCC 10031; experiment: as above; format: cell-based; details: ATCC10031, Muller-Hinton agar, 37° C., 20 hours
Protocol: as §1

[11] = test system: Micrococcus luteus ATCC 9341; experiment: as above; format: cell-based; details: ATCC9341, Muller-Hinton agar, 37° C., 20 hours
Protocol: as §1

[12] = test system: Morganella morganii ATCC 8076h; experiment: as above; format: cell-based; details: ATCC8076H, 20 h
Protocol: as §1

[13] = test system: Proteus mirabilis ATCC 25933; experiment: as above; format: cell-based; details: ATCC25933, Muller-Hinton agar, 37° C., 20 hours
Protocol: as §1

[14] = test system: Proteus vulgaris ATCC 6059; experiment: as above; format: cell-based; details: ATCC6059, Muller-Hinton agar, 37° C., 20 hours
Protocol: as §1

[15] = test system: Providencia rettgeri ATCC 9250; experiment: as above; format: cell-based; details: ATCC9250, Muller-Hinton agar, 37° C., 20 hours
Protocol: as §1

[16] = test system: Pseudomonas aeruginosa ATCC 25619; experiment: as above; format: cell-based; details: ATCC25619, Muller-Hinton agar, 37° C., 20 hours
Protocol: as §1

[17] = test system: Pseudomonas aerugionsa ATCC 10145; experiment: as above; format: cell-based; details: ATCC10145, Muller-Hinton agar, 37° C., 20 hours
Protocol: as §1

[18] = test system: Pseudomonas aerugionsa ATCC 27853; experiment: as above; format: cell-based; details: ATCC27853, Muller-Hinton agar, 37° C., 20 hours
Protocol: as §1

[19] = test system: Salmonella typhimurium ATCC 14028; experiment: as above; format: cell-based; details: Salmonella enterica, Muller-Hinton agar, 37° C., 20 hours
Protocol: as §1

[20] = test system: Serratia marcescens ATCC 27117; experiment: as above; format: cell-based; details: ATCC27117, Muller-Hinton agar, 37° C., 20 hours
Protocol: as §1

[21] = test system: Shigella flexneri ATCC 11836; experiment: as above; format: cell-based; details: ATCC11836, Muller-Hinton agar, 37° C., 20 hours
Protocol: as §1

[22] = test system: Shigella sonnei ATCC 11060; experiment: as above; format: cell-based; details: ATCC11060, Muller-Hinton agar, 37° C., 20 hours
Protocol: as §1

[23] = test system: Staphylococcus aureus ATCC 6638p; experiment: as above; format: cell-based; details: ATCC6638P, 20 h
Protocol: as §1

[24] = test system: Staphylococcus epidermidis ATCC 10537; experiment: as above; format: cell-based; details: ATCC10537, Muller-Hinton agar, 37° C., 20 hours
Protocol: as §1

[25] = test system: Streptococcus faecalis ATCC 29212; experiment: as above; format: cell-based; details: Enterococcus faecalis, ATCC29212, Muller-Hinton agar, 37° C., 20 hours
Protocol: as §1

[26] = acute toxicity test, intravenous; details: mouse, in vivo, ICR mice, observed for 14 days
From the text: The results are shown in the last row of Table 2.

[27] = in vivo absorbency test (plasma concentration, pharmacokinetic parameters); set-up: species or system SD rats (male); details: rat, iv, 20 mg/kg, rats; for half-life / concentration at 1 min / concentration at 2.5 min / concentration at 5 min / concentration at 10 min / concentration at 20 min / concentration at 40 min / concentration at 1 h / concentration at 2 h / concentration at 3 h / AUC: plasma; for half-life / AUC: Two-Compartment Model; for concentration at 1 min / concentration at 2.5 min / concentration at 5 min / concentration at 10 min / concentration at 20 min / concentration at 40 min / concentration at 1 h / concentration at 2 h / concentration at 3 h: read-out: Plasma Conc.; for concentration at 1 h: 60 min; for concentration at 2 h: 120 min; for concentration at 3 h: 180 min; for AUC: read-out: ACU (converted); for dose excreted: urine, read-out: Urinary recovery
Protocol: In addition to the in vitro tests described above, in vivo absorbency tests for the two selected compounds of formulas (I-S-1) and (I-R-1), along with Ceftadizime, were carried out by administering intravenously, in a dose of 20 mg/kg, each of these two compounds into SD rats (male) weighing 220 to 340 g; […], which were analyzed by employing the bio-assay or agar well method. About 10 to 15 rats were used for each of the compounds.
Notes: (1) Two-Compartment Model
(3) Tested Animal: Rats(male; 220-340 g)

Row | Structure (SMILES) | MIC [1] [µg/mL] | MIC [2] [µg/mL] | MIC [3] [µg/mL] | MIC [4] [µg/mL] | MIC [5] [µg/mL] | MIC [6] [µg/mL] | MIC [7] [µg/mL] | MIC [8] [µg/mL] | MIC [9] [µg/mL] | MIC [10] [µg/mL] | MIC [11] [µg/mL] | MIC [12] [µg/mL] | MIC [13] [µg/mL] | MIC [14] [µg/mL] | MIC [15] [µg/mL] | MIC [16] [µg/mL] | MIC [17] [µg/mL] | MIC [18] [µg/mL] | MIC [19] [µg/mL] | MIC [20] [µg/mL] | also measured
1 | C[C@@H](O/N=C(\C(=O)NC1C(=O)N2C(C(=O)[O-])=C(CSc3nc(N)cc(N)[n+]3N)CS[C@H]12)c1csc(N)n1)C(=O)O (stereo partly drawn) [I-R-1, 7-[(Z)-2-(2-aminothiazol-4-yl)-2-[(R)-1-carboxyeth-1-oxyimino]acetamido]-3-[(1,4,6-triaminopyrimidinium-2-yl)thiomethyl]-3-cephem-4-carboxylate] | 2 (≈ 3.28 µM) | 2 (≈ 3.28 µM) | 128 (≈ 210 µM) | 0.5 (≈ 0.819 µM) | 0.031 (≈ 0.0508 µM) | 0.5 (≈ 0.819 µM) | 0.016 (≈ 0.0262 µM) | 0.031 (≈ 0.0508 µM) | 0.031 (≈ 0.0508 µM) | 0.031 (≈ 0.0508 µM) | 1 (≈ 1.64 µM) | ≤ 0.008 | 0.031 (≈ 0.0508 µM) | 0.031 (≈ 0.0508 µM) | ≤ 0.008 | 0.5 (≈ 0.819 µM) | 2 (≈ 3.28 µM) | 1 (≈ 1.64 µM) | 0.063 (≈ 0.103 µM) | 0.031 (≈ 0.0508 µM) | MIC [21]: ≤ 0.008 µg/mL; MIC [22]: 0.016 µg/mL (≈ 0.0262 µM); MIC [23]: 8 µg/mL (≈ 13.1 µM); MIC [24]: 4 µg/mL (≈ 6.55 µM); MIC [25]: > 128 µg/mL; LD50 at 336 h [26]: > 5000 mg/kg; half-life ([27]; read-out: T1/1(β)): 30 min; half-life ([27]; read-out: T1/2(α)): 4.7 min; concentration at 1 min [27]: 170000 ng/mL; concentration at 2.5 min [27]: 102000 ng/mL; concentration at 5 min [27]: 76900 ng/mL; concentration at 10 min [27]: 57000 ng/mL; concentration at 20 min [27]: 39100 ng/mL; concentration at 40 min [27]: 17700 ng/mL; concentration at 1 h [27]: 10100 ng/mL; concentration at 2 h [27]: 2500 ng/mL; concentration at 3 h [27]: 700 ng/mL; AUC [27]: 45800 ng·h/mL; dose excreted [27]: 91%
2 | C[C@H](O/N=C(\C(=O)NC1C(=O)N2C(C(=O)[O-])=C(CSc3nc(N)cc(N)[n+]3N)CS[C@H]12)c1csc(N)n1)C(=O)O (stereo partly drawn) [I-S-1, 7-[(Z)-2-(2-aminothiazol-4-yl)-2-[(S)-1-carboxyeth-1-oxyimino]acetamido]-3-[(1,4,6-triaminopyrimidinium-2-yl)thiomethyl]-3-cephem-4-carboxylate] | 2 (≈ 3.28 µM) | 2 (≈ 3.28 µM) | 32 (≈ 52.4 µM) | 0.13 (≈ 0.213 µM) | 0.031 (≈ 0.0508 µM) | 0.5 (≈ 0.819 µM) | 0.016 (≈ 0.0262 µM) | 0.031 (≈ 0.0508 µM) | 0.031 (≈ 0.0508 µM) | 0.031 (≈ 0.0508 µM) | 0.25 (≈ 0.409 µM) | ≤ 0.008 | 0.016 (≈ 0.0262 µM) | 0.016 (≈ 0.0262 µM) | ≤ 0.008 | 0.5 (≈ 0.819 µM) | 1 (≈ 1.64 µM) | 0.5 (≈ 0.819 µM) | 0.063 (≈ 0.103 µM) | 0.031 (≈ 0.0508 µM) | MIC [21]: 0.016 µg/mL (≈ 0.0262 µM); MIC [22]: 0.031 µg/mL (≈ 0.0508 µM); MIC [23]: 4 µg/mL (≈ 6.55 µM); MIC [24]: 2 µg/mL (≈ 3.28 µM); MIC [25]: > 128 µg/mL; LD50 at 336 h [26]: > 5000 mg/kg; half-life ([27]; read-out: T1/1(β)): 37.5 min; half-life ([27]; read-out: T1/2(α)): 7.6 min; concentration at 1 min [27]: 147000 ng/mL; concentration at 2.5 min [27]: 102000 ng/mL; concentration at 5 min [27]: 72600 ng/mL; concentration at 10 min [27]: 57300 ng/mL; concentration at 20 min [27]: 37000 ng/mL; concentration at 40 min [27]: 19600 ng/mL; concentration at 1 h [27]: 11200 ng/mL; concentration at 2 h [27]: 3100 ng/mL; concentration at 3 h [27]: 1500 ng/mL; AUC [27]: 47700 ng·h/mL; dose excreted [27]: 93%
